The results in this text go back to US8436039B2, “Inhibitors of the ATB(0,+) transporter and uses thereof” (Georgia Health Sciences University Research Institute, Inc., priority 2008, dated 2013).

In one test the target is T1, mouse ATB^0,+ (Mus musculus, UniProt Q9JMA9).
T1 sequence (Q9JMA9 1-638): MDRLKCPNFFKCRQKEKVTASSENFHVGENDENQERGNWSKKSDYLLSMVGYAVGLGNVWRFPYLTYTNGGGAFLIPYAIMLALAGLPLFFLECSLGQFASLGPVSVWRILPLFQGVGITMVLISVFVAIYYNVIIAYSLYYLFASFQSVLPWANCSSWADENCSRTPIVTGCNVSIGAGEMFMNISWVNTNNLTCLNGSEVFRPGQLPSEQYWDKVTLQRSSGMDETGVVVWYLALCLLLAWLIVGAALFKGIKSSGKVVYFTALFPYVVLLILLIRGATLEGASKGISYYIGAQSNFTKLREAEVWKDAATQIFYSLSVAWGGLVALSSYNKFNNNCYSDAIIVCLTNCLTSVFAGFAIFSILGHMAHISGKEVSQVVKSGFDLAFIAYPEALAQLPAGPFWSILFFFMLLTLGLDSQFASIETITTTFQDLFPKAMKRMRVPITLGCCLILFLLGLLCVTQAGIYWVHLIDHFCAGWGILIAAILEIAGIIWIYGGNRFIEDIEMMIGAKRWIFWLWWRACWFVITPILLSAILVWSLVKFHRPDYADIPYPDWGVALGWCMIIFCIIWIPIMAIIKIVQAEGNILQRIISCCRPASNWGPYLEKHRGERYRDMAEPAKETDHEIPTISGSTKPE
The experiment in a line: Substrate-induced inward currents in X. laevis oocytes expressing mouse ATB^0,+ (two-microelectrode voltage clamp). The format is cell-based. Particulars: for Michaelis constant (K0.5) of substrate-induced currents: saturation kinetics; for Michaelis constant (K0.5) of substrate-induced currents / inward currents induced in ATB^0,+-expressing oocytes: NaCl, voltage clamp; for inward currents induced in ATB^0,+-expressing oocytes: 2.5 mM. The procedure:
Capped cRNA from the cloned mouse or human ATB^0,+ cDNA was synthesized using the mMESSAGE mMACHTNE kit (Ambion, Austin, Tex., U.S.A.). Mature oocytes (stage IV or V) from X. laevis were injected with 50 ng of cRNA. Uninjected oocytes served as controls. The oocytes were used for electrophysiological studies 3-6 days after cRNA injection. Electrophysiological studies were performed by the two-microelectrode voltage-clamp method (Nakanishi et al., 2001, J. Physiol. 532, 297-304). Oocytes were superfused with an NaCl-containing buffer (100 mM NaCl, 2 mM KCl, 1 mM MgCl2, 1 mM CaCl2, 3 mM Hepes, 3 mM Mes and 3 mM Tris, pH 7.5), followed by the same buffer containing tryptophan derivatives. The membrane potential was clamped at −50 mV. The differences between the steady-state currents measured in the presence and absence of substrates were considered as the substrate-induced currents. In the analysis of the saturation kinetics of substrate-induced currents, the kinetic parameter K0.5 (i.e. substrate concentration necessary for induction of half-maximal current) was calculated by fitting the values of the substrate-induced currents to the Michaelis-Menten equation. The Na^+ and Cl^− activation kinetics of substrate-induced currents were analysed by measuring the substrate-specific currents in the presence of increasing concentrations of Na^+ (concentration of Cl^− kept constant at 100 mM) or in the presence of increasing concentrations of Cl^− (concentration of Na^+ kept constant at 100 mM). In these experiments, the composition of the superfusion buffer was modified to contain 2 mM potassium gluconate, 1 mM MgSO4 and 1 mM calcium gluconate in place of KCl, MgCl2 and CaCl2 respectively. The data from these experiments were analysed by the Hill equation to determine the Hill coefficient (h; number of Na^+ and Cl^− ions involved in the activation process). The kinetic parameters were determined by using the commercially available computer program Sigma Plot, version 6.0 (SPSS, Chicago, Ill., U.S.A.). Uninjected oocytes were used to determine the currents induced by tryptophan derivatives due to entry via transporters that may be constitutively expressed in the oocytes. At a concentration of 2.5 mM, the currents induced by these compounds were in the range of 0-3 nA in uninjected oocytes. These currents were less than 2% of the corresponding currents induced in ATB^0,+ cRNA-injected oocytes. Therefore the endogenous currents associated with the constitutively expressed transporters were not considered in the analysis of kinetic parameters of ATB^0,+ transport activity.
The above studies with the mammalian cell expression system have focused on the interaction of 1-methyltryptophan and other tryptophan derivatives with ATB^0,+ by examining the effects of these compounds on the transporter-mediated glycine uptake. These studies have shown convincingly that 1-methyltryptophan interacts with ATB^0,+, with the L-isomer having much higher affinity for the transporter than the D-isomer. However, these studies have not shown whether or not 1-methyltryptophan is actually a transportable substrate for ATB^0,+. It is possible that 1-methyltryptophan inhibits ATB^0,+-mediated glycine uptake simply by blocking the interaction of glycine with the substrate-binding site of the transporter, rather than by actually competing with glycine for the transport process. […] We wanted to know whether 1-methyltryptophan can actually be transported by ATB^0,+. For this, we used the X. laevis oocyte expression system. Since the transport process mediated by ATB^0,+ is electrogenic, exposure of ATB^0,+-expressing oocytes to transportable substrates will induce an inward current in an Na^+- and Cl^−-dependent manner. Exposure of the same oocytes to blockers will interfere with currents induced by transportable substrates, but will not induce currents by themselves. […]

A further test concerns the target human LAT1/4F2hc (Homo sapiens, UniProt Q01650). The experiment in a line: Inhibition of LAT1 transport function: L-valine uptake in HRPE cells co-expressing human LAT1 and human 4F2hc. The format is cell-based. The settings on record: for effect on cDNA-induced valine uptake: 1 mM, L-[14C]valine 0.75 μM, 5 min.
[1] abbreviates: 1 mM substrate, Cl^- fixed at 100 mM.
The mark [2] stands for this setting: 1 mM substrate, Na^+ fixed at 100 mM.

Each structure is given as a SMILES string.

Sequence of human LAT1/4F2hc (Q01650 whole entry): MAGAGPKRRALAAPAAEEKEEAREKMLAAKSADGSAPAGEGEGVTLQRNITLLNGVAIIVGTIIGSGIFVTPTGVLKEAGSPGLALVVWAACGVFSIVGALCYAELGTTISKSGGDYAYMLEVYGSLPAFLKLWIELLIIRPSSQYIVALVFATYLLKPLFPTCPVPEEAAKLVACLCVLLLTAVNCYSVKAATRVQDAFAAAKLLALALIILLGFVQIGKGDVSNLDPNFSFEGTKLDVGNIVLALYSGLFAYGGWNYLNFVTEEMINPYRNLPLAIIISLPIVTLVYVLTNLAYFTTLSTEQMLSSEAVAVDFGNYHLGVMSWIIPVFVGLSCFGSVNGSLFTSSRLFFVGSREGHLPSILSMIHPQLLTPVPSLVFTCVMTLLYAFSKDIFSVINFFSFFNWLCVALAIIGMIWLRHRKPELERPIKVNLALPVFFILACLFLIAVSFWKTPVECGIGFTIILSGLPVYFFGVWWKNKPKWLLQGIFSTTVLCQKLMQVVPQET
Sequence of human LAT1/4F2hc (P08195 102-630 partner): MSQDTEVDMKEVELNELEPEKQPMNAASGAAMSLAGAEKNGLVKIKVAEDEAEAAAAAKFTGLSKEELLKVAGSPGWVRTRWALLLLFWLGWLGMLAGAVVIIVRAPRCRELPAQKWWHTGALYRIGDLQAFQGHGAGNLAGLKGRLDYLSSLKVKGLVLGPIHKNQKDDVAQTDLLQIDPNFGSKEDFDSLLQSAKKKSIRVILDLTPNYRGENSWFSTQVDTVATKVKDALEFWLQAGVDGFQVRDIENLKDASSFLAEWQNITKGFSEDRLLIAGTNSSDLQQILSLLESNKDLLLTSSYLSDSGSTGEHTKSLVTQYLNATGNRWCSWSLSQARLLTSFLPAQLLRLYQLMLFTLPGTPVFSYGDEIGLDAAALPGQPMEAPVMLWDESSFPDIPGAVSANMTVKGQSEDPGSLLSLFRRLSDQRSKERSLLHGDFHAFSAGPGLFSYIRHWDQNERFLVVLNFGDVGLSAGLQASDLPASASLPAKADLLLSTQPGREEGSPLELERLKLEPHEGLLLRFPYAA

Take `Cn1cc(C[C@@H](N)C(=O)O)c2ccccc21` [1-methyl-D-tryptophan]: the “Michaelis constant (K0.5) of substrate-induced currents” value at mouse ATB^0,+ worked out at 462 ± 78 µM.

With `Cn1cc(C[C@H](N)C(=O)O)c2ccccc21` [1-methyl-L-tryptophan], on mouse ATB^0,+ (setting [1]), the “Hill coefficient (h), Na^+-activation kinetics of induced currents” value amounted to 1.9±0.2 and the “Michaelis constant (K0.5) for Na^+” value turned out to be 27 ± 2 mM. On mouse ATB^0,+ (setting [2]), the “Hill coefficient, Cl^- -activation kinetics of induced currents” value came out at 1.2±0.2 and the “Michaelis constant for Cl^-” value was 2.1 ± 0.3 mM. Moreover, the “Michaelis constant (K0.5) of substrate-induced currents” value at mouse ATB^0,+ was 93 ± 16 µM. Further, the “effect on cDNA-induced valine uptake” value at human LAT1/4F2hc is given as “abolished completely”.

For the compound `CC(N)(Cc1c[nH]c2ccccc12)C(=O)O` (racemic) [α-methyl-DL-tryptophan], the “inward currents induced in ATB^0,+-expressing oocytes” value on mouse ATB^0,+ was “failed to induce currents”. In addition, on human LAT1/4F2hc, the “type of inhibition of LAT1” value is recorded as “competitive inhibitor” and the “effect on cDNA-induced valine uptake” value is recorded as “abolished completely”.

Turning to `Cn1cc(CC(N)C(=O)O)c2ccccc21` (racemic) [1-methyl-DL-tryptophan], the “inward currents induced in ATB^0,+-expressing oocytes” value on mouse ATB^0,+ is “induced marked currents”. The “effect on cDNA-induced valine uptake” value on human LAT1/4F2hc was “abolished completely”.
